Test results: patent US4875922A, “Pyrimidine derivatives” (Imperial Chemical Industries PLC, priority 1986, dated 1989)
Marks after values point to notes of the source that are not given here.

How the values were obtained:
[1] = system: Barley; experiment: Whole plant screen for plant growth regulator activity, barley (BR); assay type: in vivo, Barley (Atem); conditions: BR, 4000 ppm (4 kg/ha), visual score after 2-6 weeks; for T = Tillering or side shooting: * = decrease in tillering
Protocol: (§1) Compounds 1 to 3 in Table 1 were tested for plant growth regulator activity against five species for various growth effects relevant to plant growth regulation.
(§2) The plant species used in this screen are presented in Table II with the leaf stage at which they were sprayed. Each chemical was applied at 4000 ppm (4 kg/ha in a 1000 l/ha field volume) using a tracksprayer and a SS8004E (Teejet) nozzle.
(§3) After spray the plants were grown in a glasshouse with 25° C. day/22° C. night temperatures and supplementary lighting was supplied when necessary (from mercury vapour lamps), to provide a 16 hour photoperiod. The exception to this were the temperate cereals, wheat and barley which were grown in 16° C. day/13° C. night temperatures.
(§4) After 2-6 weeks in the glasshouse, depending on the time of year, the plants were visually assessed for morphological characteristics. Formulation blanks were used as controls to assess the plants.
(§5) Additional compounds in Table I were tested for plant growth regulator activity using the method of Example 60 except that Tomato was included in the test as an additional species. Tomato, Ailsa Craig, was grown in a single 3 inch pot in peat and treated at the 2 to 21/2 leaves growth stage. The results were presented in Table IV in which Tomato is indicated by the code TO and the Key is otherwise as for Table III.

[2] = system: Wheat; experiment: Whole plant screen for plant growth regulator activity, wheat (WW); assay type: in vivo, Wheat (Timmo); conditions: for G = Greening effect / I = Interligular or internodal length reduction / R = Retardation / T = Tillering or side shooting: WW, 4000 ppm (4 kg/ha), visual score after 2-6 weeks; for T = Tillering or side shooting: * = decrease in tillering
Protocol: as §1, §2, §3, §4, §5

[3] = system: Tomato; experiment: Whole plant screen for plant growth regulator activity, tomato (TO); assay type: in vivo, Tomato (Ailsa Craig); conditions: 4000 ppm (4 kg/ha), visual score after 2-6 weeks
Protocol: as §2, §3, §4, §5
An astrisk (*) after a score under "T" (tillering) indicated a decrease in tillering.

[4] = system: Rice; experiment: Whole plant screen for plant growth regulator activity, rice (RC); assay type: in vivo, Rice (Ishikari); conditions: 4000 ppm (4 kg/ha), visual score after 2-6 weeks; for T = Tillering or side shooting: * = decrease in tillering
Protocol: as §1, §2, §3, §4, §5

[5] = system: Apple; experiment: Whole plant screen for plant growth regulator activity, apple (AP); assay type: in vivo, Apple (Red Delicious); conditions: 4000 ppm (4 kg/ha), visual score after 2-6 weeks
Protocol: as §1, §2, §3, §4, §5

Row | Compound | T = Tillering or side shooting [1] | G = Greening effect [2] | I = Interligular or internodal length reduction [2] | R = Retardation [2] | G = Greening effect [3] | I = Interligular or internodal length reduction [3] | R = Retardation [3] | G = Greening effect [1] | I = Interligular or internodal length reduction [1] | R = Retardation [1] | T = Tillering or side shooting [2] | A = Apical damage ([2]; 4000 ppm) | G = Greening effect [4] | I = Interligular or internodal length reduction [4] | R = Retardation [4] | T = Tillering or side shooting [4] | G = Greening effect [5] | I = Interligular or internodal length reduction [5] | R = Retardation [5] | T = Tillering or side shooting ([3]; * = decrease in tillering)
1 | CC(C)C(O)(CC1CCCC1)c1cncnc1 (centres unmarked) [Compound 27] | 2* | 2 (31-60%) | 2 (31-60%) | 2 (31-60%) | 2 (31-60%) | 2 (31-60%) | 2 (31-60%) | – | – | – | – | – | – | – | – | – | – | – | – | –
2 | CCC(Cl)CC#CC(O)(c1cncnc1)C(C)(C)C (centres unmarked) [Compound 38] | 3 (61-100%) | 2 (31-60%) | 3 (61-100%) | 2 (31-60%) | 2 (31-60%) | 3 (61-100%) | 3 (61-100%) | 3 (61-100%) | 3 (61-100%) | 3 (61-100%) | 1 (10-30%) | – | – | – | – | – | – | – | – | –
3 | CCCCC(O)(c1cncnc1)C(C)(C)C (centres unmarked) [Compound 35] | 3 (61-100%) | – | – | – | – | 2 (31-60%) | 2 (31-60%) | – | – | – | – | 2* | – | – | – | – | – | – | – | –
4 | CC(C)C(O)(CCC(C)(C)C)c1cncnc1 (centres unmarked) [Compound 20] | – | 2 (31-60%) | 3 (61-100%) | 3 (61-100%) | 2 (31-60%) | 3 (61-100%) | 3 (61-100%) | 1 (10-30%) | 2 (31-60%) | 2 (31-60%) | – | – | 2 (31-60%) | 3 (61-100%) | 2 (31-60%) | 3 (61-100%) | 2 (31-60%) | 3 (61-100%) | 3 (61-100%) | –
5 | CC(C)(C)C(O)(C#CCCCCCl)c1cncnc1 (centres unmarked) [Compound 37] | 3 (61-100%) | 2 (31-60%) | 3 (61-100%) | 2 (31-60%) | – | – | – | 3 (61-100%) | 3 (61-100%) | 3 (61-100%) | 1 (10-30%) | – | – | – | – | – | – | – | – | –
6 | CC(C)(C)/C=C/C(O)(c1cncnc1)C(C)(C)CF (centres unmarked) [Compound 49, 3-fluoro-2,2-dimethyl-1-(3,3-dimethylbut-1-ene)-1-(pyrimidin-5-yl)-propan-1-ol] | 3 (61-100%) | 1 (10-30%) | 2 (31-60%) | 2 (31-60%) | 1 (10-30%) | 1 (10-30%) | 2 (31-60%) | – | – | – | 1 (10-30%) | – | – | – | – | – | – | – | – | –
7 | CCCCCCC(O)(c1cncnc1)C(C)(C)C (centres unmarked) [Compound 30] | 2 (31-60%) | 2 (31-60%) | 3 (61-100%) | 3 (61-100%) | 2 (31-60%) | 2 (31-60%) | 2 (31-60%) | 1 (10-30%) | 3 (61-100%) | 2 (31-60%) | 3 (61-100%) | – | 2 (31-60%) | 3 (61-100%) | 2 (31-60%) | 3 (61-100%) | – | 2 (31-60%) | 2 (31-60%) | –
8 | CCCCCCC#CC(O)(c1cncnc1)C(C)(C)C (centres unmarked) [Compound 33] | 2 (31-60%) | 1 (10-30%) | 1 (10-30%) | – | 1 (10-30%) | 1 (10-30%) | 2 (31-60%) | – | – | – | – | – | – | – | – | – | – | – | – | –
9 | CC(C)CCCCC(O)(c1cncnc1)C(C)C (centres unmarked) [Compound 22] | – | 2 (31-60%) | 2 (31-60%) | 2 (31-60%) | 2 (31-60%) | 2 (31-60%) | 2 (31-60%) | – | 1 (10-30%) | 1 (10-30%) | 1 (10-30%) | – | – | – | – | – | – | 1 (10-30%) | 1 (10-30%) | 1 (10-30%)
10 | CC(C)(C)C(O)(C#CCCCl)c1cncnc1 (centres unmarked) [Compound 36] | 3 (61-100%) | 2 (31-60%) | 3 (61-100%) | 2 (31-60%) | 2 (31-60%) | 2 (31-60%) | 2 (31-60%) | 3 (61-100%) | 3 (61-100%) | 3 (61-100%) | 1 (10-30%) | – | – | – | – | – | – | – | – | –
11 | CC(C)(C)/C=C/C(O)(c1cncnc1)C(C)(C)C (centres unmarked) [Compound 39] | 3 (61-100%) | 1 (10-30%) | 3 (61-100%) | 3 (61-100%) | 2 (31-60%) | 3 (61-100%) | 3 (61-100%) | – | 3 (61-100%) | 3 (61-100%) | 2 (31-60%) | – | – | – | – | – | – | – | – | –
12 | CCC(C)CCCC(O)(c1cncnc1)C(C)C (centres unmarked) [Compound 21] | 3 (61-100%) | 2 (31-60%) | 2 (31-60%) | 2 (31-60%) | 2 (31-60%) | 2 (31-60%) | 2 (31-60%) | 1 (10-30%) | 3 (61-100%) | 2 (31-60%) | – | – | 1 (10-30%) | 2 (31-60%) | 2 (31-60%) | 2 (31-60%) | – | 2 (31-60%) | 2 (31-60%) | –
13 | CC(C)CC#CC(O)(c1cncnc1)C1CC1 (centres unmarked) [Compound 56] | 3 (61-100%) | 2 (31-60%) | 3 (61-100%) | 2 (31-60%) | 1 (10-30%) | 1 (10-30%) | 1 (10-30%) | 3 (61-100%) | 3 (61-100%) | 3 (61-100%) | 1 (10-30%) | – | – | – | – | – | – | – | – | –
14 | CCCCCCCC(O)(c1cncnc1)C(C)C (centres unmarked) [Compound 26] | 2 (31-60%) | 1 (10-30%) | 1 (10-30%) | 2 (31-60%) | 1 (10-30%) | 1 (10-30%) | 2 (31-60%) | – | – | – | – | – | – | – | – | – | – | – | – | –
15 | CC(C)CCC(O)(c1cncnc1)C(C)(C)C (centres unmarked) [Compound 29] | 2 (31-60%) | 2 (31-60%) | 3 (61-100%) | 2 (31-60%) | 1 (10-30%) | 2 (31-60%) | 2 (31-60%) | – | 2 (31-60%) | 2 (31-60%) | 2 (31-60%) | – | 1 (10-30%) | 3 (61-100%) | 2 (31-60%) | 1 (10-30%) | 1 (10-30%) | 2 (31-60%) | 2 (31-60%) | –
